This note sets out measurements from patent US4740233A, “Substituted 1,2,4-triazolo[1,5-a]-pyrimidine-2-sulfonamides and compositions and methods of controlling undesired vegetation and suppressing the nitrification of ammonium nitrogen in soil” (The Dow Chemical Company, priority 1986, dated 1988).

One test concerns cotton. The test is described as follows: Preemergent control of plant species. The format is in vivo, Gossypium spp. The following applies: Gossypium hirsutum, pre-emergence, 336 h; 0.25 lb/acre; read-out: percent preemergent control. An outline of the steps:
(§1)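 Growth reduction relative to untreated plants of the same species, assessed two weeks after treatment, defines the control value. Compositions, mostly aqueous emulsions, were deposited uniformly on seeded greenhouse soil beds at the tabulated rates, with a water-treated bed as reference.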

The next test relates to rape. Nature of the test: Preemergent control of plant species. The conditions noted are these: Brassica napus, pre-emergence, 336 h; 0.25 lb/acre; read-out: percent preemergent control. The format is in vivo, Brassica napus. In outline:
as §1

The next test deals with soybean. The test is described as follows: Preemergent control of plant species. The format is in vivo, Glycine max. The following applies: Glycine max, pre-emergence, 336 h; 0.25 lb/acre; read-out: percent preemergent control. An outline of the steps: as §1
For another test, the system named is sugar beet. The test is described as follows: Preemergent control of plant species. The format is in vivo, Beta saccharifera. The conditions noted are these: Beta vulgaris, pre-emergence, 336 h; 0.25 lb/acre; read-out: percent preemergent control. In outline:
as §1

The next test concerns jimsonweed. The test is described as follows: Preemergent control of plant species. The format is in vivo, Datura stramonium. The following applies: Datura stramonium, pre-emergence, 336 h; 0.25 lb/acre; read-out: percent preemergent control. An outline of the steps: as §1
The next test relates to annual morning glory. The test is described as follows: Preemergent control of plant species. The conditions noted are these: Ipomoea, pre-emergence, 336 h; 0.25 lb/acre; read-out: percent preemergent control. The format is in vivo, Ipomoea spp. In outline: as §1
The test system of the next test is velvetleaf. The test is described as follows: Preemergent control of plant species. The format is in vivo, Abutilon theophrasti. The following applies: Abutilon theophrasti, pre-emergence, 336 h; 0.25 lb/acre; read-out: percent preemergent control. In outline:
as §1

The subject of another test is corn. The test is described as follows: Preemergent control of plant species. The following applies: Zea mays, pre-emergence, 336 h; 0.25 lb/acre; read-out: percent preemergent control. The format is in vivo, Zea mays. In outline:
as §1

For another test, the system named is rice. The test is described as follows: Preemergent control of plant species. The following applies: Oryza sativa, pre-emergence, 336 h; 0.25 lb/acre; read-out: percent preemergent control. The format is in vivo, Oryza sativa. In outline:
as §1

In the next test the test system is sorghum. The test is described as follows: Preemergent control of plant species. The following applies: Sorghum, pre-emergence, 336 h; 0.25 lb/acre; read-out: percent preemergent control. The format is in vivo, Sorghum vulgare. In outline:
as §1

The test system of another test is wheat. The test is described as follows: Preemergent control of plant species. The conditions noted are these: Triticum aestivum, pre-emergence, 336 h; 0.25 lb/acre; read-out: percent preemergent control. The format is in vivo, Triticum aestivum. In outline: as §1
Another test deals with barnyardgrass. Nature of the test: Preemergent control of plant species. The format is in vivo, Echinochloa crusgalli. The following applies: Echinochloa crus-galli, pre-emergence, 336 h; 0.25 lb/acre; read-out: percent preemergent control. An outline of the steps:
as §1

For another test, the system named is johnson grass. The test is described as follows: Preemergent control of plant species. The format is in vivo, Sorghum halepense. The following applies: Sorghum halepense, pre-emergence, 336 h; 0.25 lb/acre; read-out: percent preemergent control. An outline of the steps: as §1
In a further test the test system is wild oats. Nature of the test: Preemergent control of plant species. The following applies: Avena fatua, pre-emergence, 336 h; 0.25 lb/acre; read-out: percent preemergent control. The format is in vivo. An outline of the steps: as §1
The subject of the next test is yellow foxtail. Nature of the test: Preemergent control of plant species. The format is in vivo, Setaria lutescens. The conditions noted are these: Setaria, pre-emergence, 336 h; 0.25 lb/acre; read-out: percent preemergent control. An outline of the steps:
as §1

For the next test, the system named is yellow nutsedge. Nature of the test: Preemergent control of plant species. The format is in vivo, Cyperus esculentus. The conditions noted are these: Cyperus, pre-emergence, 336 h; 0.25 lb/acre; read-out: percent preemergent control. In outline:
as §1

Test [1] concerns nitrification of ammonium nitrogen. Nature of the test: Suppression of nitrification of ammonium nitrogen in soil. The following applies: 27° C. An outline of the steps: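 Soil (20 g) moistened to its 1/3 bar tension value, mixed with test chemical and incubated sealed for two weeks at 27° C. Nitrate extracted with ammonium sulfate solution and measured by nitrate-specific ion electrode; value given as % NH4-N remaining.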

`COc1ccn2nc(S(=O)(=O)Nc3c(Cl)cccc3Cl)nc2n1` [Compound 208]: the plant injury at 280.212 g/ha amounted to 100% with cotton; 100% in the test with rape; 45% with soybean; 100% with sugar beet; 0% in the test with corn; 0% in the test with rice. The plant injury at 280.212 g/ha in the test with sorghum turned out to be 30%; in the test on wheat, 0%. Moreover, the pest or weed control at 280.212 g/ha amounted to 90% with jimsonweed; 40% with annual morning glory; 90% in the test on velvetleaf; 0% in the test on barnyardgrass; 0% in the test on johnson grass; 0% in the test with wild oats. The results for the pest or weed control at 280.212 g/ha with yellow foxtail and with yellow nutsedge were 0% and 60%, respectively. Moreover, the “% NH4-N Remaining After 2 Weeks Incubation” value was 38% in test [1] (0.06 ppm), 38% in test [1] (0.25 ppm), 42% in test [1] (1 ppm) and 37% in test [1] (4 ppm).
In the case of `CC(C)=NOC(=O)c1cccc(C)c1NS(=O)(=O)c1nc2nc(C)cc(C)n2n1` [Compound 78], the plant injury at 280.212 g/ha in the test on cotton stood at 0%; in the test on rape, 100%; with soybean it was 30%; with sugar beet, 70%; in the test with corn it was 10%; in the test on rice, 40%. In addition, the plant injury at 280.212 g/ha was 0% with sorghum and 40% in the test with wheat. Further, the pest or weed control at 280.212 g/ha amounted to 0% in the test with jimsonweed; 0% in the test with annual morning glory; 30% in the test on velvetleaf; 20% in the test on barnyardgrass; 0% in the test on johnson grass; 30% in the test with wild oats. Further, the pest or weed control at 280.212 g/ha in the test on yellow foxtail was 20%; with yellow nutsedge, 50%. The “% NH4-N Remaining After 2 Weeks Incubation” value in test [1] (0.06 ppm) is 74%; in test [1] (0.25 ppm) it was 32%; in test [1] (1 ppm) it was 53%; in test [1] (4 ppm), 72%.
For `Cc1ccn2nc(S(=O)(=O)N(C(=O)C3CCCCC3)c3c(F)cccc3F)nc2n1` [Compound 291], the plant injury at 280.212 g/ha in the test on cotton was 100%; in the test on rape, 100%; with soybean it was 20%; in the test with sugar beet, 100%; in the test with corn, 55%; in the test on rice, 100%. The plant injury at 280.212 g/ha in the test with sorghum and with wheat was 100% each time. Also, the pest or weed control at 280.212 g/ha in the test with jimsonweed worked out at 100%; in the test with annual morning glory, 90%; in the test with velvetleaf, 100%; in the test with barnyardgrass, 100%; with johnson grass it was 100%; with wild oats, 70%. Also, the pest or weed control at 280.212 g/ha in the test with yellow foxtail and in the test with yellow nutsedge was 100% each time.
Consider `CC(=O)c1cccc(C)c1NS(=O)(=O)c1nc2nc(C)ccn2n1` [Compound 166], for which the plant injury at 280.212 g/ha is 100% in the test with cotton; 100% with rape; 80% with soybean; 100% with sugar beet; 10% with corn; 40% in the test with rice. The plant injury at 280.212 g/ha was determined as 80% in the test with sorghum and 20% with wheat. The pest or weed control at 280.212 g/ha with jimsonweed was determined as 90%; in the test with annual morning glory it was 95%; in the test on velvetleaf, 100%; with barnyardgrass, 80%; in the test with johnson grass, 20%; in the test with wild oats, 30%. The pest or weed control at 280.212 g/ha in the test on yellow foxtail turned out to be 80%; with yellow nutsedge, 100%.
As for `Cc1ccnc2nc(S(=O)(=O)Nc3c(F)cccc3Cl)nn12` [Compound 181], the plant injury at 280.212 g/ha with cotton worked out at 98%; in the test on rape, 100%; in the test with soybean, 80%; in the test on sugar beet, 98%; with corn, 0%; in the test with rice, 30%. The plant injury at 280.212 g/ha in the test with sorghum turned out to be 95%; in the test with wheat, 0%. The pest or weed control at 280.212 g/ha is 98% with jimsonweed; 80% in the test with annual morning glory; 98% with velvetleaf; 20% with barnyardgrass; 60% in the test on johnson grass; 40% with wild oats. Besides, the pest or weed control at 280.212 g/ha with yellow foxtail is 80%; in the test with yellow nutsedge, 50%.
Take `CCOC(=O)N(c1c(Cl)cccc1Cl)S(=O)(=O)c1nc2nc(C)ccn2n1` [Compound 272]: the plant injury at 280.212 g/ha with cotton is 80%; in the test with rape it was 100%; in the test with soybean it was 0%; in the test with sugar beet it was 100%; with corn, 0%; in the test with rice it was 30%. Moreover, the plant injury at 280.212 g/ha is 40% with sorghum and 0% in the test with wheat. Further, the pest or weed control at 280.212 g/ha with jimsonweed is 90%; in the test with annual morning glory, 40%; with velvetleaf it was 100%; with barnyardgrass, 60%; with johnson grass it was 40%; in the test on wild oats, 0%. In addition, the pest or weed control at 280.212 g/ha turned out to be 90% in the test with yellow foxtail and 100% with yellow nutsedge.
As for `Cc1ccn2nc(S(=O)(=O)N(C(=O)c3ccccc3)c3c(F)cccc3F)nc2n1` [Compound 290], the plant injury at 280.212 g/ha with cotton was 100%; in the test on rape, 100%; with soybean, 70%; in the test with sugar beet it was 100%; in the test on corn, 90%; in the test with rice, 100%. Further, the plant injury at 280.212 g/ha in the test with sorghum turned out to be 100%; in the test on wheat it was 95%. For the same compound, the pest or weed control at 280.212 g/ha was found to be 100% in the test with jimsonweed; 100% with annual morning glory; 100% with velvetleaf; 100% in the test on barnyardgrass; 100% in the test on johnson grass; 70% in the test on wild oats. For the same compound, the values for the pest or weed control at 280.212 g/ha with yellow foxtail and in the test on yellow nutsedge were 100% and 80%, respectively.
Turning to `Cc1ccn2nc(S(=O)(=O)N(C(=O)c3ccccc3)c3c(Cl)cccc3Cl)nc2n1` [Compound 274, 5-methyl-N-benzoly-N-(2,6-dichlorophenyl)-1,2,4-triazolo[1,5-a]pyrimidine-2-sulfonamide], the plant injury at 280.212 g/ha with cotton came out at 95%; in the test with rape, 100%; with soybean, 0%; in the test with sugar beet, 100%; with corn, 60%; with rice it was 80%. In addition, the values for the plant injury at 280.212 g/ha in the test on sorghum and with wheat were 90% and 0%, respectively. Further, the pest or weed control at 280.212 g/ha was determined as 90% in the test with jimsonweed; 80% with annual morning glory; 100% in the test on velvetleaf; 80% in the test with barnyardgrass; 70% in the test on johnson grass; 0% in the test with wild oats. Also, the pest or weed control at 280.212 g/ha was 95% in the test on yellow foxtail and 100% in the test with yellow nutsedge.
